Source: patent publication US8008525B2, “Receptor function regulating agent” (Takeda Pharmaceutical Company Limited, priority 2003, dated 2011)

Target: T1, human 14273 receptor (Homo sapiens, UniProt Q5NUL3)
T1 construct: expressed in transfected cells
T1 sequence (Q5NUL3 1-361): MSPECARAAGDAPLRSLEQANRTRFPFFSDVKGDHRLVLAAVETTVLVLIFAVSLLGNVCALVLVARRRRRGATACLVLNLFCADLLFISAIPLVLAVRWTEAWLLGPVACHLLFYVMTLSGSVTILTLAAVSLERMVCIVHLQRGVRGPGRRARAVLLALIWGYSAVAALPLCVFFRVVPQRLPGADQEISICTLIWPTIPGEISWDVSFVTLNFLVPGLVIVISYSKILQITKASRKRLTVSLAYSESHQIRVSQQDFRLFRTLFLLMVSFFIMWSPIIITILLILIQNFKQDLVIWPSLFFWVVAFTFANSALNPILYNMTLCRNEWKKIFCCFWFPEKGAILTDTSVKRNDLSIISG
Test: Test Example 1: regulating effect for 14273 receptor function (agonist effect), change in intracellular calcium level by FLIPR
Type: cell-based
Conditions: CHO cell line (No. 104) expressing human 14273 receptor, change of fluorescent intensity after 35 seconds
Experimental: CHO cell lines (No. 104) in which a human 14273 receptor has expressed was diluted to contain 3×10^4/100 μl cells, and dispensed in Black walled 96-well plate (Costar) at a density of 100 μl/well, followed by culturing overnight in a CO2 incubator. A change in intracellular calcium level was measured using FLIPR (Molecular Device). The method is described as below. 50 μg of Fluo-3AM (DOJIN) was dissolved in 21 μl of DMSO (DOJIN) and an equal volume of 20% pluronic acid (Molecular Probes) was added thereto, followed by mixing them. The mixture was added to 10.6 ml of the assay buffer [which is prepared by adding 10 ml of a solution, which is prepared by adding 20 ml of 1 M HEPES (pH 7.4, DOJIN) to 1 L of HBSS (Invitrogen), dissolving 710 mg of probenecid (Sigma) in 5 ml of 1 N NaOH, and further adding 5 ml of the above-mentioned HBSS/HEPES solution and mixing it.] supplemented with 105 μl of fetal bovine serum to prepare a fluorescent dye solution. The medium of the cell plate was removed, the fluorescent dye solution was dispensed in 100 μl each per well. The culturing was performed in a CO2 incubator for 1 hour to incorporate the fluorescent dye into the cells. The cells after culturing were washed with the assay buffer. The compounds to be added to the cells were diluted to each concentration with a buffer solution to which CHAPS (DOJIN) was added in 0.015%, and dispensed in a plate for the test sample. Following the pretreatment above, a change in intracellular calcium level after addition of the compound was determined with FLIPR to investigate the agonist effect. An EC50 value was calculated from dose-reaction curve using the change of fluorescent intensity after 35 seconds from the reaction initiation.

Compound | EC50 [µM]
O=C(O)CCc1cc(F)c(OCc2cccc(Oc3ccc(Cl)cc3)c2)c(F)c1 [Example 48, 3-(4-{[3-(4-chlorophenoxy)benzyl]oxy}-3,5-difluorophenyl)propanoic acid] | ≤ 10
COc1ccc2c(c1)C(Oc1ccc(CCC(=O)O)cc1)C(C)(C)C2 (centres unmarked) [Reference Example 44, 4-[(2,3-Dihydro-6-methoxy-2,2-dimethyl-1H-inden-1-yl)oxy]benzenepropanoic acid] | ≤ 10
COc1cccc(COc2c(F)cc(CCC(=O)O)cc2F)c1 [Example 6, 3,5-Difluoro-4-[(3-methoxyphenyl)methoxy]benzenepropanoic acid] | ≤ 10
Cc1ccccc1COc1c(F)cc(CCC(=O)O)cc1F [Example 42, 3-{3,5-difluoro-4-[(2-methylbenzyl)oxy]phenyl}propanoic acid] | ≤ 10
O=C(O)CCc1cc(F)c(OCc2ccccc2OC2CCCC2)c(F)c1 [Example 28, 3-(4-{[2-(cyclopentyloxy)benzyl]oxy}-3,5-difluorophenyl)propanoic acid] | ≤ 10
Cc1ccc2c(c1)C(Oc1ccc(CCC(=O)O)cc1)C(C)(C)C2 (centres unmarked) [Reference Example 50, 4-[(2,3-Dihydro-2,2,6-trimethyl-1H-inden-1-yl)oxy]benzenepropanoic acid] | ≤ 10
O=C(O)CCc1cc(F)c(OCc2cccc(Oc3nccs3)c2)c(F)c1 [Example 68, 3-(3,5-difluoro-4-{[3-(1,3-thiazol-2-yloxy)benzyl]oxy}phenyl)propanoic acid] | ≤ 10
CC(C)Oc1cc(COc2ccc(CCC(=O)O)cc2F)cc(Oc2ccccc2)c1 [Example 124, 3-{3-fluoro-4-[(3-isopropoxy-5-phenoxybenzyl)oxy]phenyl}propanoic acid] | ≤ 10
O=C(O)CCc1cc(F)c(OCc2cccc(Oc3ccccc3)c2)c(F)c1 [Example 2, 3,5-Difluoro-4-[(3-phenoxyphenyl)methoxy]benzenepropanoic acid] | ≤ 10
O=C(O)CCc1cc(F)c(OCc2cccc(OC3CCCC3)c2)c(F)c1 [Example 58, 3-(4-{[3-(cyclopentyloxy)benzyl]oxy}-3,5-difluorophenyl)propanoic acid] | ≤ 10
CC1(C)Cc2ccccc2C1Oc1ccc(CCC(=O)O)cc1 (centres unmarked) [Reference Example 25, 4-[(2,3-Dihydro-2,2-dimethyl-1H-inden-1-yl)oxy]benzenepropanoic acid] | ≤ 10
O=C(O)CCc1ccc(OCc2cc(O)cc(Oc3ccccc3)c2)c(F)c1 [Example 118, 3-{3-fluoro-4-[(3-hydroxy-5-phenoxybenzyl)oxy]phenyl}propanoic acid] | ≤ 10
CCOc1cccc(COc2c(F)cc(CCC(=O)O)cc2F)c1 [Example 8, 4-[(3-Ethoxyphenyl)methoxy]-3,5-difluorobenzenepropanoic acid] | ≤ 10
O=C(O)CCc1cc(F)c(OCc2cccc(Oc3ccc(F)cc3)c2)c(F)c1 [Example 54, 3-(3,5-difluoro-4-{[3-(4-fluorophenoxy)benzyl]oxy}phenyl)propanoic acid] | ≤ 10
CCOc1cccc(COc2ccc(CCC(=O)O)cc2F)c1 [Example 188, 3-{4-[(3-ethoxybenzyl)oxy]-3-fluorophenyl}propanoic acid] | ≤ 10
O=C(O)CCc1ccc(OCc2ccccc2Oc2ccccc2)cc1 [Reference Example 30, 4-[(2-Phenoxyphenyl)methoxy]benzenepropanoic acid] | ≤ 10
COc1ccc(Oc2cccc(COc3c(F)cc(CCC(=O)O)cc3F)c2)cc1 [Example 46, 3-(3,5-difluoro-4-{[3-(4-methoxyphenoxy)benzyl]oxy}phenyl)propanoic acid] | ≤ 10
Cc1cccc(Oc2cccc(COc3ccc(CCC(=O)O)cc3F)c2)c1 [Example 169, 3-(3-fluoro-4-{[3-(3-methylphenoxy)benzyl]oxy}phenyl)propanoic acid] | ≤ 10
O=C(O)CCc1cc(F)c(OCc2ccccc2OC2CCCCC2)c(F)c1 [Example 36, 3-(4-{[2-(cyclohexyloxy)benzyl]oxy}-3,5-difluorophenyl)propanoic acid] | ≤ 10
O=C(O)CCc1ccc(OCc2cccc(Oc3ccccc3)c2)c(Cl)c1 [Example 4, 3-Chloro-4-[(3-phenoxyphenyl)methoxy]benzenepropanoic acid] | ≤ 10
CC(C)Oc1cccc(COc2c(F)cc(CCC(=O)O)cc2F)c1 [Example 10] | ≤ 10

Compound | EC50 [µM]
O=C(O)CCc1cc(F)c(OCc2cccc(OC3CCCCC3)c2)c(F)c1 [Example 52, 3-(4-{[3-(cyclohexyloxy)benzyl]oxy}-3,5-difluorophenyl)propanoic acid] | ≤ 10
CCOc1cccc(COc2ccc(CCC(=O)O)cc2F)c1C [Example 208, 3-{4-[(3-ethoxy-2-methylbenzyl)oxy]-3-fluorophenyl}propanoic acid] | ≤ 10
O=C(O)CCc1ccc(OCc2ccccc2Oc2ccccc2)c(F)c1 [Example 18, 3-Fluoro-4-[(2-phenoxyphenyl)methoxy]benzenepropanoic acid] | ≤ 10
Cc1ccc(Oc2cccc(COc3c(F)cc(CCC(=O)O)cc3F)c2)cc1 [Example 56, 3-(3,5-difluoro-4-{[3-(4-methylphenoxy)benzyl]oxy}phenyl)propanoic acid] | ≤ 10
CCOc1cccc(COc2ccc(CCC(=O)O)cc2C)c1 [Example 180, 3-{4-[(3-ethoxybenzyl)oxy]-3-methylphenyl}propanoic acid] | ≤ 10
CC(C)Oc1ccccc1COc1c(F)cc(CCC(=O)O)cc1F [Example 34, 3-{3,5-difluoro-4-[(2-isopropoxybenzyl)oxy]phenyl}propanoic acid] | ≤ 10
COc1cc(COc2ccc(CCC(=O)O)cc2F)cc(OC)c1 [Example 94, 3-{4-[(3,5-dimethoxybenzyl)oxy]-3-fluorophenyl}propanoic acid] | ≤ 10
O=C(O)CCc1cc(F)c(OCc2ccccc2N2CCCCC2)c(F)c1 [Example 44, 3-{3,5-difluoro-4-[(2-piperidin-1-ylbenzyl)oxy]phenyl}propanoic acid] | ≤ 10
Cc1ccc(Oc2cccc(COc3ccc(CCC(=O)O)cc3F)c2)cc1 [Example 171, 3-(3-fluoro-4-{[3-(4-methylphenoxy)benzyl]oxy}phenyl)propanoic acid] | ≤ 10
Cc1cc(CCC(=O)O)ccc1OCc1cccc(OC(C)C)c1 [Example 178, 3-{4-[(3-isopropoxybenzyl)oxy]-3-methylphenyl}propanoic acid] | ≤ 10
O=C(O)CCc1cc(F)c(OCc2cccc(Oc3ccsc3)c2)c(F)c1 [Example 62, 3-(3,5-difluoro-4-{[3-(3-thienyloxy)benzyl]oxy}phenyl)propanoic acid] | ≤ 10
Cc1cc(CCC(=O)O)ccc1OCc1cccc(Oc2ccccc2)c1 [Example 173, 3-(3-methyl-4-[(3-phenoxybenzyl)oxy]phenyl)propanoic acid] | ≤ 10
CC(C)COc1ccccc1COc1c(F)cc(CCC(=O)O)cc1F [Example 32, 3-{3,5-difluoro-4-[(2-isobutoxybenzyl)oxy]phenyl}propanoic acid] | ≤ 10
O=C(O)CCc1ccc(OCc2cccc3c2OCO3)c(F)c1 [Example 102, 3-[4-(1,3-benzodioxol-4-ylmethoxy)-3-fluorophenyl]propanoic acid] | ≤ 10
O=C(O)CCc1ccc(OC2CCCc3ccccc32)cc1 (centres unmarked) [Reference Example 20, 4-[(1,2,3,4-Tetrahydronaphthalen-1-yl)oxy]benzenepropanoic acid] | ≤ 10
O=C(O)CCc1cc(F)c(OC2CCc3ccccc32)c(F)c1 (centres unmarked) [Reference Example 14, 3,5-Difluoro-4-[(2,3-dihydro-1H-inden-1-yl)oxy]benzenepropanoic acid] | ≤ 10
O=C(O)CCc1ccc(OCc2cccc(Oc3ccccc3)c2)cc1 [Reference Example 8, 4-[(3-Phenoxyphenyl)methoxy]benzenepropanoic acid] | ≤ 10
CC1(C)Cc2ccc(Cl)cc2C1Oc1ccc(CCC(=O)O)cc1 (centres unmarked) [Reference Example 47, 4-[(6-Chloro-2,3-dihydro-2,2-dimethyl-1H-inden-1-yl)oxy]benzenepropanoic acid] | ≤ 10
CC(C)COc1cccc(COc2c(F)cc(CCC(=O)O)cc2F)c1 [Example 135, 3-{3,5-difluoro-4-[(3-isobutoxybenzyl)oxy]phenyl}propanoic acid] | ≤ 10
O=C(O)CCc1cc(F)c(OCc2cccc(Oc3cccs3)c2)c(F)c1 [Example 64, 3-(3,5-difluoro-4-{[3-(2-thienyloxy)benzyl]oxy}phenyl)propanoic acid] | ≤ 10
